# Assay results published in patent US20120135965A1, “AMORPHOUS FOSAMPRENAVIR CALCIUM” (RANBAXY LABORATORIES LIMITED, priority 2009, published 2012).
# Read-outs that look alike come from different tables or passages of the source. Marks after values point to notes of the source that are not given here.
# What was measured:
# [1] = Hygroscopicity according to European Pharmacopoeia 6.0; format: physicochemical; conditions: for Hygroscopicity, % increase in mass: 25 ± 1° C./80 ± 2% RH for 24 h, monocalcium salt
# [2] = Aqueous solubility test according to United States Pharmacopeia 32; format: physicochemical; conditions: for Solubility (mg/ml of solvent) / Parts of solvent required per g of solute / solubility: aqueous; for Solubility (mg/ml of solvent) / solubility: by qualitative observation; for solubility: thermodynamic from solid, read-out: Solubility (mg/ml of solvent)
# [3] = Storage stability of the amorphous form followed by XRPD; format: physicochemical; conditions: 40±1° C. at 75±2% RH, two months
# Procedure: The XRPD of the samples were determined by using Panalytical X'Pert Pro X-Ray Powder Diffractometer in the range 3 to 40 degree 2 theta with a step size of 0.02 and under tube voltage and current of 45 Kv and 40 mA respectively. Copper radiation of wavelength 1.54 angstrom and Xceletor detector were used.
# Fosamprenavir calcium (5 g) was dissolved in methanol (125 ml) at 25° to 30° C. The solution was filtered and fed to a spray dryer (BUCHI, B-290) at feed pump RPM of 1% to 3%. The following parameters were controlled in the spray drying process: • Nozzle Diameter: 0.7 mm • Carrier gas: Nitrogen at 2.0 to 3.0 kg/cm^2 • Air inlet temperature: 80° to 85° C. • Outlet temperature: 35° to 55° C. • Type of atomizer: Two fluid nozzle • The solvent was evaporated at 80° to 85° C. by spray drying. The solid so obtained was collected from the spray dryer and further dried at 55° to 60° C. under vacuum (10 to 15 mmHg) for 10 to 12 hours to obtain the title compound having an XRPD pattern as depicted in FIG. 2.
# [4] = Antimicrob. Agents Chemother., 2004, 48(3), 791-798; cited from earlier work
smiles,measurement,setting,value
"CC(C)CN(C[C@@H](OP(=O)([O-])[O-])[C@H](Cc1ccccc1)NC(=O)O[C@H]1CCOC1)S(=O)(=O)c1ccc(N)cc1.[Ca+2] [(3S)-tetrahydrofuran-3-yl (1S ,2R)-3-[[(4-aminophenyl)sulfonyl](isobutyl)amino]-1-benzyl-2-(phosphonooxy)propylcarbamate monocalcium salt, reference compound]","Hygroscopicity, % increase in mass",[1]; listed as Crystalline form I,11.62%
"CC(C)CN(C[C@@H](OP(=O)([O-])[O-])[C@H](Cc1ccccc1)NC(=O)O[C@H]1CCOC1)S(=O)(=O)c1ccc(N)cc1.[Ca+2] [Amorphous fosamprenavir calcium, (3S)-tetrahydrofuran-3-yl (1S ,2R)-3-[[(4-aminophenyl)sulfonyl](isobutyl)amino]-1-benzyl-2-(phosphonooxy)propylcarbamate monocalcium salt]",Solubility (mg/ml of solvent),"[2]; pH 1.47, monocalcium salt",1.25 mg/mL
same,Parts of solvent required per g of solute,"[2]; pH 1.47, monocalcium salt",800 parts
same,Solubility (mg/ml of solvent),"[2]; pH 3.27, monocalcium salt",10 mg/mL
same,Parts of solvent required per g of solute,"[2]; pH 3.27, monocalcium salt",100 parts
same,Parts of solvent required per g of solute,"[2]; pH 4.11, monocalcium salt",150 parts
same,Solubility (mg/ml of solvent),"[2]; pH 5.02, monocalcium salt",6.7 mg/mL
same,Parts of solvent required per g of solute,"[2]; pH 5.02, monocalcium salt",150 parts
same,solubility,"[2]; pH 4.11, aqueous buffer, pH 4.11",6.7 mg/mL
same,solubility,"[2]; pH 6.27, aqueous buffer, pH 6.27",0.1 mg/mL
same,Volume of aqueous solution required for dissolving about 1 g,[2]; pH of about 3 to about 5.5,not more than 200 ml
same,Solubility compared with crystalline form I of fosamprenavir calcium,[2]; relevant physiological pH range,superior
same,Change in XRPD pattern / conversion into crystalline form on storage,"[3]; listed as Example 2, monocalcium salt",no change in the XRPD pattern was observed
same,Change in XRPD pattern / conversion into crystalline form on storage,[3]; monocalcium salt,not converted into any crystalline form
same,Hygroscopicity in words,[1],essentially non-hygroscopic
same,"Hygroscopicity, % increase in mass",[1],17.5%
"CC(C)CN(C[C@@H](OP(=O)([O-])[O-])[C@H](Cc1ccccc1)NC(=O)O[C@H]1CCOC1)S(=O)(=O)c1ccc(N)cc1.[Ca+2] [Crystalline form I of fosamprenavir calcium] [(3S)-tetrahydrofuran-3-yl (1S ,2R)-3-[[(4-aminophenyl)sulfonyl](isobutyl)amino]-1-benzyl-2-(phosphonooxy)propylcarbamate monocalcium salt, reference compound]",Solubility (mg/ml of solvent),[2]; pH 1.47,0.5 mg/mL
same,Parts of solvent required per g of solute,"[2]; pH 1.47, monocalcium salt",2100 parts
same,Solubility (mg/ml of solvent),"[2]; pH 3.27, monocalcium salt",2.5 mg/mL
same,Parts of solvent required per g of solute,"[2]; pH 3.27, monocalcium salt",400 parts
same,Solubility (mg/ml of solvent),"[2]; pH 4.11, monocalcium salt",4.0 mg/mL
same,Parts of solvent required per g of solute,"[2]; pH 4.11, monocalcium salt",250 parts
same,Solubility (mg/ml of solvent),"[2]; pH 5.02, monocalcium salt",3.3 mg/mL
same,Parts of solvent required per g of solute,"[2]; pH 5.02, monocalcium salt",300 parts
same,Parts of solvent required per g of solute,"[2]; pH 6.27, monocalcium salt","> 10,000** parts"
"CC(C)CN(C[C@@H](OP(=O)([O-])[O-])[C@H](Cc1ccccc1)NC(=O)O[C@H]1CCOC1)S(=O)(=O)c1ccc(N)cc1.[Ca+2] [calcium salt, (3S)-tetrahydrofuran-3-yl (1S ,2R)-3-[[(4-aminophenyl)sulfonyl](isobutyl)amino]-1-benzyl-2-(phosphonooxy)propylcarbamate monocalcium salt]","Solubility over the relevant physiological pH range, compared among forms",[4],reduced solubility
